According to the supplement of paper PMC10307832:

How the values were obtained:
Assay in all cases: relative viability (nuclei count vs DMSO), 5 days (fraction); higher = more cells survive
[1] = compound: CC1=C(C(=O)N2C=CSC2=N1)CCN3CCC(=C(C4=CC=CC=C4)C5=CC=C(C=C5)F)CC3 + CC(=O)c1c(C)c2cnc(Nc3ccc(N4CCNCC4)cn3)nc2n(C2CCCC2)c1=O [Palbociclib] (partner 0.5 µM)
How it was run: (§1)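 Five library-drug doses in √10 steps were combined with a fixed anchor-drug dose, or a single drug was given alone, by pin tool to lung cancer cell lines in 1536-well plates the day after seeding. Nuclei were stained and counted after 5 days. Relative viability is the nuclei count in treated wells over that in vehicle wells, taken as the median of duplicate plates.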

[2] = compound: CC1=C(C(=O)N2C=CSC2=N1)CCN3CCC(=C(C4=CC=CC=C4)C5=CC=C(C=C5)F)CC3 + COc1cccc2cc(-c3nc([C@H]4CC[C@H](C(=O)O)CC4)n4ncnc(N)c34)[nH]c12 [OSI-027] (partner 0.5 µM)
How it was run: as §1

[3] = compound: CC1=C(C(=O)N2C=CSC2=N1)CCN3CCC(=C(C4=CC=CC=C4)C5=CC=C(C=C5)F)CC3 + COc1cc2c(Oc3ccc(NC(=O)C4(C(=O)Nc5ccc(F)cc5)CC4)cc3F)ccnc2cc1OCCCN1CCOCC1 [Foretinib] (partner 0.25 µM)
How it was run: as §1

[4] = compound: CC1=C(C(=O)N2C=CSC2=N1)CCN3CCC(=C(C4=CC=CC=C4)C5=CC=C(C=C5)F)CC3
How it was run: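 Viability was read as treated-well nuclei divided by vehicle-well nuclei, using the median across plates. Lung cancer cell lines in 1536-well plates were kept overnight at 37 °C, pinned with five √10-spaced library-drug doses, and after 5 days were Hoechst-stained, imaged at 4× and counted in MetaXpress. Plates passed only with control CV below 25% and at least one doubling.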

Cell Line	relative viability ([1]; first compound 0.08 µM)	relative viability ([1]; first compound 0.253 µM)	relative viability ([1]; first compound 0.8 µM)	relative viability ([1]; first compound 2.53 µM)	relative viability ([1]; first compound 8 µM)	relative viability ([2]; first compound 0.08 µM)	relative viability ([2]; first compound 0.253 µM)	relative viability ([2]; first compound 0.8 µM)	relative viability ([2]; first compound 2.53 µM)	relative viability ([2]; first compound 8 µM)	relative viability ([3]; first compound 0.08 µM)	relative viability ([3]; first compound 0.253 µM)	relative viability ([3]; first compound 0.8 µM)	relative viability ([3]; first compound 2.53 µM)	relative viability ([3]; first compound 8 µM)	relative viability ([4]; 0.08 µM)	relative viability ([4]; 0.253 µM)	relative viability ([4]; 0.8 µM)	relative viability ([4]; 2.53 µM)	relative viability ([4]; 8 µM)
EKVX	0.371	0.366	0.349	0.397	0.293	0.46	0.708	0.777	0.744	0.545	0.671	1.04	0.815	0.855	0.677	0.818	0.984	1.06	1.09	0.711
EMC-BAC-2	0.497	0.494	0.493	0.46	0.506	0.35	0.353	0.372	0.37	0.291	0.945	0.982	0.981	1.12	0.972	1.01	0.798	0.908	1.12	0.796
EPLC-272H	0.321	0.316	0.33	0.329	0.337	0.26	0.282	0.316	0.262	0.235	0.658	0.622	0.657	0.677	0.576	0.832	0.914	0.864	1.03	0.743
H3255	0.273	0.317	0.313	0.311	0.303	0.474	0.572	0.65	0.594	0.512	0.818	0.891	0.734	0.886	0.707	0.802	1.01	1.04	1.01	0.832
HARA	0.307	0.275	0.276	0.289	0.285	0.379	0.577	0.534	0.454	0.275	1.19	0.98	0.956	0.942	0.649	1.07	1.5	1.06	0.961	0.745
HCC-15	0.738	0.744	0.679	0.729	0.556	0.593	0.628	0.707	0.782	0.507	1.06	0.995	1.16	1.07	0.774	0.955	1.14	1.03	0.991	0.725
HCC-78	0.336	0.462	0.484	0.519	0.349	0.352	0.349	0.406	0.356	0.326	0.547	0.522	0.513	0.534	0.522	0.833	1.08	0.943	0.954	0.806
HCC-366	0.392	0.394	0.458	0.337	0.277	1.17	1.2	1.04	1.12	0.252	0.935	1	1.01	1	0.662	0.852	1.02	1.06	1.05	0.502
HCC-827	0.483	0.496	0.491	0.486	0.455	0.761	0.776	0.842	0.833	0.62	1.11	1.08	1.05	1.13	1.01	1.02	1.1	1.04	1.05	0.943
HOP-62	0.439	0.479	0.457	0.411	0.288	0.92	0.771	0.837	0.824	0.488	1.17	0.995	1.14	1.06	0.705	1.01	1.02	0.988	0.946	0.577
LC-2-ad	0.463	0.459	0.475	0.473	0.458	0.876	0.994	0.87	0.913	0.663	0.971	1.09	0.892	1.12	0.761	1.09	0.994	0.94	1.04	0.865
LCLC-97TM1	0.255	0.217	0.284	0.283	0.205	0.585	0.585	0.507	0.487	0.369	1.01	1.01	1.02	0.92	0.958	0.921	1.07	1.02	0.874	0.91
LCLC-103H	0.523	0.495	0.491	0.504	0.453	0.567	0.605	0.401	0.462	0.411	0.864	0.567	0.732	0.761	0.496	1.04	1.06	0.957	1.04	0.796
LK-2	0.766	0.607	0.822	0.791	0.575	0.242	0.188	0.156	0.18	0.212	1.35	1.07	1.18	1.33	0.794	0.955	0.902	1.07	0.998	0.658
LOU-NH91	0.501	0.59	0.543	0.547	0.536	0.734	0.769	0.767	0.76	0.642	0.91	0.926	1.03	0.942	0.906	1.01	0.927	0.973	1.04	0.911
LU99A	0.383	0.367	0.416	0.387	0.447	0.333	0.313	0.254	0.276	0.25	0.793	0.771	0.832	0.822	0.802	1.13	0.99	0.88	0.972	0.89

Cell Line	relative viability ([1]; first compound 0.08 µM)	relative viability ([1]; first compound 0.253 µM)	relative viability ([1]; first compound 0.8 µM)	relative viability ([1]; first compound 2.53 µM)	relative viability ([1]; first compound 8 µM)	relative viability ([2]; first compound 0.08 µM)	relative viability ([2]; first compound 0.253 µM)	relative viability ([2]; first compound 0.8 µM)	relative viability ([2]; first compound 2.53 µM)	relative viability ([2]; first compound 8 µM)	relative viability ([3]; first compound 0.08 µM)	relative viability ([3]; first compound 0.253 µM)	relative viability ([3]; first compound 0.8 µM)	relative viability ([3]; first compound 2.53 µM)	relative viability ([3]; first compound 8 µM)	relative viability ([4]; 0.08 µM)	relative viability ([4]; 0.253 µM)	relative viability ([4]; 0.8 µM)	relative viability ([4]; 2.53 µM)	relative viability ([4]; 8 µM)
LXF-289	0.595	0.666	0.604	0.599	0.469	0.784	0.79	0.779	0.884	0.55	1	1.01	1.01	1.01	0.879	0.952	1.1	1.03	1.03	0.893
NCI-H23	0.542	0.492	0.463	0.568	0.403	0.572	0.517	0.482	0.738	0.399	0.945	0.902	0.924	1.02	0.795	1.06	1.06	0.857	0.964	0.718
NCI-H322M	0.552	0.492	0.479	0.504	0.524	0.522	0.509	0.547	0.596	0.442	0.86	1.01	1.11	0.942	0.9	0.89	0.91	0.877	1.09	1.08
NCI-H358	0.138	0.136	0.145	0.162	0.128	0.681	0.666	0.666	1.13	0.469	0.568	0.665	0.695	0.87	0.483	0.802	0.921	0.978	1.2	0.639
NCI-H441	0.219	0.196	0.2	0.208	0.234	0.505	0.582	0.576	0.754	0.416	1.07	0.968	1.05	0.976	0.84	0.736	1.06	1.15	1.05	0.593
NCI-H460	0.187	0.151	0.203	0.0978	0.13	0.951	0.633	0.605	0.712	0.191	0.782	0.796	1.16	1.13	0.232	0.923	0.956	1.06	1.04	0.567
NCI-H520	0.211	0.235	0.238	0.223	0.19	0.251	0.247	0.251	0.212	0.233	0.778	0.846	0.924	0.873	0.641	0.981	0.974	1.03	1.05	0.657
NCI-H647	0.461	0.425	0.298	0.453	0.153	0.581	0.66	0.652	0.72	0.316	1.03	1.23	1.24	1.2	0.65	0.996	0.894	0.877	1.09	0.462
NCI-H650	0.322	0.348	0.322	0.32	0.334	0.513	0.489	0.551	0.504	0.531	0.994	1.11	1.13	1.17	1.06	0.853	0.963	0.904	1.1	0.816
NCI-H661	0.402	0.393	0.391	0.417	0.429	0.618	0.659	0.691	0.712	0.627	0.871	1.02	0.983	1.05	0.814	0.851	1	1.01	1.02	0.764
NCI-H727	0.582	0.547	0.577	0.665	0.701	0.52	0.51	0.527	0.638	0.45	0.846	1.01	0.89	0.921	0.624	0.712	1.03	0.896	1.06	0.687
NCI-H838	0.207	0.213	0.268	0.207	0.191	0.445	0.339	0.37	0.454	0.352	0.827	1.03	1.04	1.12	0.9	0.779	0.998	0.987	1.22	0.704
NCI-H1355	0.368	0.404	0.378	0.407	0.455	0.377	0.405	0.355	0.421	0.424	1.09	0.94	1.08	0.893	0.661	0.961	1	1.04	0.981	0.757
NCI-H1395	0.623	0.656	0.551	0.616	0.61	0.685	0.626	0.558	0.596	0.621	1.07	1.08	0.972	0.97	1.06	0.953	0.992	0.762	0.992	0.872
NCI-H1437	0.297	0.317	0.325	0.323	0.257	0.978	0.879	0.836	1.08	0.631	1.23	1.32	1.31	1.34	0.841	0.918	1.02	1.02	1.09	0.775
